Source: US20110034441A1, “INDAZOLES AS WNT/B-CATENIN SIGNALING PATHWAY INHIBITORS AND THERAPEUTIC USES THEREOF” (EPITHERIX, LLC, priority 2009, published 2011)
pIC50: −log10 of the molar value.

Test system: Wnt
Assay: Wnt reporter screening assay: SP5 promoter (TCF/LEF) firefly luciferase in SW480 cells
Format: cell-based
Conditions: SW480 colon cancer cells with SP5 promoter luciferase reporter; 24 hours after compound addition; normalized to DMSO; read-out: Wnt inhibition, IC50
Source text: Another screening assay for Wnt activity is described as follows. Reporter cell lines can be generated by stably transducing cells of cancer cell lines (e.g., colon cancer) with a lentiviral construct that include a wnt-responsive promoter driving expression of the firefly luciferase gene.
Lentiviral constructs can be made in which the SP5 promoter, a promoter having eight TCF/LEF binding sites derived from the SP5 promoter, is linked upstream of the firefly luciferase gene. The lentiviral constructs can also include a hygromycin resistance gene as a selectable marker. The SP5 promoter construct can be used to transduce SW480 cells, a colon cancer cell line having a mutated APC gene that generates a truncated APC protein, leading to de-regulated accumulation of β-catenin.
Cultured SW480 cells bearing a reporter construct can be distributed at approximately 10,000 cells per well into 384 well multiwell plates. Compounds from a small molecule compound library can then be added to the wells in half-log dilutions using a three micromolar top concentration. A series of control wells for each cell type receive only buffer and compound solvent. Twenty-four hours after the addition of compound, reporter activity for luciferases can be assayed, for example, by addition of the BrightGlo luminescence reagent (Promega) and the Victor3 plate reader (Perkin Elmer). Readings can be normalized to DMSO only treated cells, and normalized activities can then be used in the IC50 calculations.

With “N-ethyl-4-methyl-5-(3-(4-(4-methyl-1H-imidazol-1-yl)-1H-benzo[d]imidazol-2-yl)-1H-indazol-5-yl)nicotinamide [Compound 43]” as the substance, how does the pIC50 read?
Its pIC50 is 7.02 to 7.11.
